Source: patent US20240059710A1, “KRAS G12D Inhibitors” (Jacobio Pharmaceuticals Co., Ltd., priority 2020, published 2024)
Read-outs that look alike come from different tables or passages of the source.

Tests used:
[1] = target: T1, GDP-loaded HIS-KRAS (G12D, aa 1-169) (Homo sapiens, UniProt P01116, G12D); test: SOS1 catalyzed nucleotide exchange assay; format: biochemical; conditions: SOS1 ExD, TR-FRET, 4 hours at 25° C.
T1 construct: GDP-loaded HIS-KRAS (G12D, aa 1-169)
Outline: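 Compound was preincubated 15 min with 1.5 nM GDP-loaded KRAS G12D (final 5 nM GDP). SOS1 ExD (aa 564-1049, 0.5 µM), 80 nM BODIPY FL GTP and anti-His Tb antibody were then added for 4 h at 25 °C. The TR-FRET 515/486 ratio was normalized between DMSO and no-KRAS wells, and IC50 came from 4-parameter fits.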

[2] = target: T2, GppNp-loaded HIS-KRAS (G12D, aa 1-169) / cRAF RBD (Homo sapiens, UniProt P01116, G12D); test: GTP-KRAS and cRAF interaction assay; format: binding; conditions: HTRF, 2 hours at 25° C.
T2 construct: GppNp-loaded HIS-KRAS (G12D, aa 1-169)
Outline: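 GppNp-loaded KRAS G12D (2.0 nM) preincubated 15 min with compound, then cRAF RBD (35 nM) and HTRF antibodies added for 2 h at 25° C with 100 μM GTP final. Ratios normalized to DMSO and no-KRAS controls; IC50 by 4-parameter fit.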

[3] = system: AGS cells expressing KRAS G12D; test: Phospho-ERK1/2(THR202/TYR204) HTRF assay; format: cell-based; conditions: 2 hours incubation, read-out: AGS p-ERK IC50
Outline: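 Cells seeded 40,000/well, incubated overnight, then treated with compound in F12K with 0.1% FBS for 2 h at 37 °C. Lysates assayed for phospho-ERK1/2 by HTRF after 4 h at 25 °C; IC50 from 4-parameter logistic fit.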

[4] = system: AGS; test: Cell growth inhibition assay (AGS); format: cell-based; conditions: 6 days incubation, CellTiter-Glo
Outline: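 AGS cells in F12K/10% FBS plated at 500 cells/well, attached overnight, then exposed to compounds for 6 days at 37° C./5% CO2. Viability by CellTiter-Glo luminescence; IC50 from 4-parameter logistic fit.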

[5] = system: AsPC-1; test: Cell growth inhibition assay (AsPC-1); format: cell-based; conditions: AsPC-1, 6 days incubation, CellTiter-Glo
Outline: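 AsPC-1 cells seeded at 1000 cells/well in RPMI-1640 with 10% FBS, attached overnight, then exposed to compound dilutions for 6 days at 37 °C/5% CO2. Viability read by CellTiter-Glo luminescence; IC50 from a 4-parameter logistic fit.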

T2 sequence (P01116 1-169 isoform P01116-2 G12D): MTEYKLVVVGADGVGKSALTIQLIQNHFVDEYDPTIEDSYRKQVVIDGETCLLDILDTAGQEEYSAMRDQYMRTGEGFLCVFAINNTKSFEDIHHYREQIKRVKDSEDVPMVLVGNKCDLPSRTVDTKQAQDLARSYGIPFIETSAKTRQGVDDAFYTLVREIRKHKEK
T1 sequence (P01116 1-169 isoform P01116-2 G12D): as above

SMILES	IC50 [1] [nM]	IC50 [2] [nM]	IC50 ([3]; Homo sapiens) [nM]	IC50 ([4]; Homo sapiens, 144 h) [nM]	IC50 ([5]; Homo sapiens, ASPC1, 144 h) [nM]	IC50 [3] [nM]	IC50 [4] [nM]	IC50 [5] [nM]
C#Cc1cccc2cc(O)cc(-c3c(F)cc4c(N5CC6CCC(C5)N6)nc(OCC5(CN6CCOCC6)CC5)nc4c3C)c12 [Compound 101]	1.59	277	125	39.6	113	–	–	–
C#Cc1cccc2cc(O)cc(-c3c(CO)cc4c(N5CC6CCC(C5)N6)nc(OCC5(CN6CCOCC6)CC5)nc4c3F)c12 [Compound 102]	6.42	74.2	40.4	82.5	1940	–	–	–
C#Cc1cccc2cc(O)cc(-c3c(C(=C)C)cc4c(N5CC6CCC(C5)N6)nc(OCC5(CN6CCOCC6)CC5)nc4c3F)c12 [Compound 105]	1.57	15.6	13	18.4	63.3	–	–	–
C#Cc1c(F)ccc2cc(O)cc(-c3c(C(C)C)cc4c(N5CC6CCC(C5)N6)nc(OCC5(CN6CCOCC6)CC5)nc4c3F)c12 [Compound 106]	0.332	1.3	8.6	1.8	12.8	–	–	–
C#Cc1cccc2cc(O)cc(-c3c(Cl)cc4c(N5CC6CCC(C5)N6)nc(OCC5(CN6CCOCC6)CC5)nc4c3Cl)c12 [Compound 107]	4.11	524	140	107	282	–	–	–
C#Cc1cccc2cc(O)cc(-c3cc4nc(OCC5(CN6CCOCC6)CC5)nc(N5CC6CCC(C5)N6)c4cc3F)c12 [Compound 108]	28.1	298	19	21.9	63.6	–	–	–
C#Cc1cccc2cc(O)cc(-c3cc4nc(OCC5(CN6CCOCC6)CC5)nc(N5CC6CCC(C5)N6)c4cc3CC)c12 [Compound 109]	48.5	140	51.9	28.3	86.9	–	–	–
C#Cc1cccc2cc(O)cc(-c3ccc4c(N5CC6CCC(C5)N6)nc(OCC5(CN6CCC[C@H](F)C6)CC5)nc4c3F)c12 [Compound 113]	12.6	124	–	–	–	15.9	4.35	18.4
C#Cc1cccc2cc(O)cc(-c3ccc4c(N5CC6CCC(C5)N6)nc(OCC5(CN6CC[C@@H](F)C6)CC5)nc4c3F)c12 [Compound 114]	12.3	120	9.02	4.47	18.7	–	–	–
C#Cc1cccc2cc(O)cc(-c3ccc4c(N5CC6CCC(C5)N6)nc(OCC5(CN6CCOC[C@H]6C)CC5)nc4c3F)c12 [Compound 115]	28.2	121	4.23	4.23	7.52	–	–	–
C#Cc1cccc2cc(O)cc(-c3ccc4c(N5CC6CCC(C5)N6)nc(OCC5(CN6CCCC6)CC5)nc4c3F)c12 [Compound 116]	12.5	110	10.8	20.8	189	–	–	–
C#Cc1cccc2cc(O)cc(-c3ccc4c(N5CC6CCC(C5)N6)nc(OCC5(CN6CCC(OC)CC6)CC5)nc4c3F)c12 [Compound 117]	17.1	129	10.3	12.4	85.6	–	–	–
C#Cc1cccc2cc(O)cc(-c3cc4nc(OCC5(CN6CCOCC6)CC5)nc(N5CC6CCC(C5)N6)c4cc3C)c12 [Compound 118]	19.2	165	64	31.1	145	–	–	–
C#Cc1cccc2cc(O)cc(-c3cc4nc(OCC5(CN6CCOCC6)CC5)nc(N5CC6CCC(C5)N6)c4cc3C(F)(F)F)c12 [Compound 119]	42.9	200	113	81.6	362	–	–	–
C#Cc1cccc2cc(O)cc(-c3cc4nc(OCC5(CN6CCOCC6)CC5)nc(N5CC6CCC(C5)N6)c4cc3OC)c12 [Compound 120]	37.4	307	19.9	28.1	180	–	–	–
C#Cc1cccc2cc(O)cc(-c3ccc4c(N5CC6CCC(C5)N6)nc(OCC5(CN6CCOCC6)CC5)nc4c3Cl)c12 [Compound 121]	28.8	318	19.7	11.2	67	–	–	–
C#Cc1c(Cl)ccc2cc(O)cc(-c3c(F)cc4c(N5CC6CCC(C5)N6)nc(OCC5(CN6CCOCC6)CC5)nc4c3F)c12 [Compound 126]	2.07	24.7	20.8	0.486	14.3	–	–	–
C#Cc1c(Cl)ccc2cc(O)cc(-c3ccc4c(N5CC6CCC(C5)N6)nc(OCC5(CN6CCOCC6)CC5)nc4c3F)c12 [Compound 127]	1.18	15.7	2.61	1.82	24	–	–	–
C#Cc1cccc2cc(O)cc(-c3ccc4c(N5CC6CCC(C5)N6)nc(OCC5(CN6CCCCC6)CC5)nc4c3F)c12 [Compound 131]	9.1	90.4	9.86	13.4	55	–	–	–
C#Cc1cccc2cc(O)cc(-c3ccc4c(N5CC6CCC(C5)N6)nc(OCC5(CN6CCOCC6)CC5)nc4c3C)c12 [Compound 132]	25.7	794	96.4	33.2	111	–	–	–
Oc1cc(Cl)c(C2CC2)c(-c2c(Cl)cc3c(N4CC5CCC(C4)N5)nc(OCC4(CN5CCOCC5)CC4)nc3c2F)c1 [Compound 133]	7.82	688	456	140	714	–	–	–
